Assay results from PubChem BioAssay AID330 (DTP/NCI, 2004).
“And” between values parts separate entries of the source, which are not always exact repeats. Equal entries are not always repeated. Inconclusive results and toxic doses are left out.

Test system: P388 leukemia ip, CD2F1 mice, survival T/C
Test: NCI In Vivo Anticancer Drug Screen. Data for tumor model P388 Leukemia (intraperitoneal) in CD2F1 (CDF1) mice
Conditions: endpoint: median survival time, higher = longer survival
In short: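 Mice carrying the transplanted tumor received test compound or vehicle. Survival was recorded in each group, and the value is the treated-group measurement divided by that of the vehicle-treated control group.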

[1] = dose: 50.0 mg/kg/injection, schedule: Q01DX005 (ip), vehicle: Klucel (hydroxypropylcellulose) (HPC)
[2] = dose: 100.0 mg/kg/injection, schedule: Q01DX005 (ip), vehicle: Klucel (hydroxypropylcellulose) (HPC)
[3] = dose: 200.0 mg/kg/injection, schedule: Q01DX005 (ip), vehicle: Klucel (hydroxypropylcellulose) (HPC)
[4] = dose: 200.0 mg/kg/injection, schedule: Q01DX009 (ip), vehicle: Klucel (hydroxypropylcellulose) (HPC)
[5] = dose: 100.0 mg/kg/injection, schedule: Q04DX003 (ip), vehicle: Klucel (hydroxypropylcellulose) (HPC)
[6] = dose: 200.0 mg/kg/injection, schedule: Q04DX003 (ip), vehicle: Klucel (hydroxypropylcellulose) (HPC)
[7] = dose: 50.0 mg/kg/injection, schedule: Q01DX009 (ip), vehicle: Klucel (hydroxypropylcellulose) (HPC)
[8] = dose: 100.0 mg/kg/injection, schedule: Q01DX009 (ip), vehicle: Klucel (hydroxypropylcellulose) (HPC)
[9] = dose: 50.0 mg/kg/injection, schedule: Q01DX009 (ip), vehicle: saline with Tween-80
[10] = dose: 100.0 mg/kg/injection, schedule: Q01DX009 (ip), vehicle: saline with Tween-80
[11] = dose: 400.0 mg/kg/injection, schedule: Q01DX009 (ip), vehicle: Klucel (hydroxypropylcellulose) (HPC)
[12] = dose: 50.0 mg/kg/injection, schedule: Q01DX009 (ip), vehicle: saline
[13] = dose: 200.0 mg/kg/injection, schedule: Q01DX009 (ip), vehicle: saline
[14] = dose: 25.0 mg/kg/injection, schedule: Q04DX003 (ip), vehicle: saline with Tween-80
[15] = dose: 50.0 mg/kg/injection, schedule: Q04DX003 (ip), vehicle: saline with Tween-80
[16] = dose: 200.0 mg/kg/injection, schedule: Q04DX003 (ip), vehicle: saline with Tween-80
[17] = dose: 12.5 mg/kg/injection, schedule: Q01DX009 (ip), vehicle: saline
[18] = dose: 25.0 mg/kg/injection, schedule: Q01DX009 (ip), vehicle: saline
[19] = dose: 50.0 mg/kg/injection, schedule: Q01DX005 (ip), vehicle: saline with Tween-80
[20] = dose: 100.0 mg/kg/injection, schedule: Q01DX005 (ip), vehicle: saline with Tween-80
[21] = dose: 200.0 mg/kg/injection, schedule: Q01DX005 (ip), vehicle: saline with Tween-80

## CCC1CC(C)C(O)/C=C/C=C/CC(C)OC(=O)CC(O)C(OC)C1OC1OC(C)CC(O)(C(C)=O)C1O (configuration not stated)
dose: 25.0 mg/kg/injection, schedule: Q01DX005 (ip), vehicle: Klucel (hydroxypropylcellulose) (HPC)
  T/C: 104 % of control
[1]
  T/C: 104 % of control
[2]
  T/C: 102 % of control
[3]
  T/C: 101 % of control

## Cc1noc(-c2ccc([N+](=O)[O-])o2)n1
dose: 130.0 mg/kg/injection, schedule: Q01DX009 (ip), vehicle: Klucel (hydroxypropylcellulose) (HPC)
  T/C: 100 % of control
[4]
  T/C: 104 % of control

## O=C(OCC1N=C1c1ccccc1)c1ccc(Br)cc1 (configuration not stated)
dose: 100.0 mg/kg/injection, schedule: Q01DX001 (ip), vehicle: suspension in saline
  T/C: 104 % of control
dose: 200.0 mg/kg/injection, schedule: Q01DX001 (ip), vehicle: suspension in saline
  T/C: 99 % of control
dose: 400.0 mg/kg/injection, schedule: Q01DX001 (ip), vehicle: suspension in saline
  T/C: 104 % of control

## CCSc1nc2c(N)nc(N)nc2[nH]c1=O
[5]
  T/C: 99 % of control
[6]
  T/C: 86 % of control

## COC1=CC(=O)C(=O)C=C1C(C)(C)C
dose: 2.8 mg/kg/injection, schedule: Q01DX005 (ip), vehicle: saline with Tween-80
  T/C: 107 % of control
dose: 5.6 mg/kg/injection, schedule: Q01DX005 (ip), vehicle: saline with Tween-80
  T/C: 100 % of control
dose: 11.25 mg/kg/injection, schedule: Q01DX005 (ip), vehicle: saline with Tween-80
  T/C: 107 % of control
dose: 22.5 mg/kg/injection, schedule: Q01DX005 (ip), vehicle: saline with Tween-80
  T/C: 98 % of control and 115 % of control
dose: 45.0 mg/kg/injection, schedule: Q01DX005 (ip), vehicle: saline with Tween-80
  T/C: 91 % of control and 96 % of control

## Cc1cc(C(C)(C)C)ccc1SP(Sc1ccc(C(C)(C)C)cc1C)Sc1ccc(C(C)(C)C)cc1C
[7]
  T/C: 100 % of control
[8]
  T/C: 92 % of control
[4]
  T/C: 92 % of control

## CC1(C)CC2(OC2c2ccc([N+](=O)[O-])cc2)C(=O)c2ccccc21 (configuration not stated)
dose: 0.78 mg/kg/injection, schedule: Q01DX009 (ip), vehicle: Klucel (hydroxypropylcellulose) (HPC)
  T/C: 87 % of control
dose: 1.56 mg/kg/injection, schedule: Q01DX009 (ip), vehicle: Klucel (hydroxypropylcellulose) (HPC)
  T/C: 88 % of control
dose: 3.13 mg/kg/injection, schedule: Q01DX009 (ip), vehicle: Klucel (hydroxypropylcellulose) (HPC)
  T/C: 90 % of control
[9]
  T/C: 100 % of control
[10]
  T/C: 90 % of control
dose: 200.0 mg/kg/injection, schedule: Q01DX009 (ip), vehicle: saline with Tween-80
  T/C: 95 % of control
[11]
  T/C: 93 % of control

## CCOC(=O)c1ccc(NN=NCCF)cc1
dose: 6.25 mg/kg/injection, schedule: Q01DX005 (ip), vehicle: distilled water + Tween-80
  T/C: 160 % of control
dose: 12.5 mg/kg/injection, schedule: Q01DX005 (ip), vehicle: distilled water + Tween-80
  T/C: 252 % of control
dose: 25.0 mg/kg/injection, schedule: Q01DX005 (ip), vehicle: distilled water + Tween-80
  T/C: 256 % of control and 275 % of control

## O=C(CC(=O)C(F)(F)F)c1cccs1.O=C(CC(=O)C(F)(F)F)c1cccs1.O=C(CC(=O)C(F)(F)F)c1cccs1.[Gd]
[12]
  T/C: 96 % of control
dose: 100.0 mg/kg/injection, schedule: Q01DX009 (ip), vehicle: saline
  T/C: 96 % of control
[13]
  T/C: 99 % of control

## C=CCC1CCSC1=O (configuration not stated)
[14]
  T/C: 109 % of control

## CN1C(=O)/C(=C2\Sc3ccccc3NC2=O)SC1=S
[15]
  T/C: 92 % of control
dose: 100.0 mg/kg/injection, schedule: Q04DX003 (ip), vehicle: saline with Tween-80
  T/C: 95 % of control
[16]
  T/C: 102 % of control

## Nc1ncnc(N2C(=S)OC3C(O)C(CO)OC32)c1N (configuration not stated)
dose: 25.0 mg/kg/injection, schedule: Q04DX003 (ip), vehicle: water
  T/C: 100 % of control
dose: 50.0 mg/kg/injection, schedule: Q04DX003 (ip), vehicle: water
  T/C: 95 % of control
dose: 100.0 mg/kg/injection, schedule: Q04DX003 (ip), vehicle: water
  T/C: 95 % of control
dose: 200.0 mg/kg/injection, schedule: Q04DX003 (ip), vehicle: water
  T/C: 113 % of control
dose: 400.0 mg/kg/injection, schedule: Q04DX003 (ip), vehicle: water
  T/C: 95 % of control

## S=c1[nH]nc(-c2cnns2)o1
dose: 50.0 mg/kg/injection, schedule: Q04DX003 (ip), vehicle: Klucel (hydroxypropylcellulose) (HPC)
  T/C: 103 % of control
[5]
  T/C: 98 % of control
[6]
  T/C: 107 % of control

## CNC1=CC(=O)c2c(c3cc(O)ccc3n2C)C1=O
[17]
  T/C: 103 % of control
[18]
  T/C: 103 % of control
[12]
  T/C: 103 % of control and 87 % of control
[13]
  T/C: 104 % of control

## O=C1NC(=O)c2c1c1cnn(-c3ccccc3)c1n1cccc21
dose: 7.5 mg/kg/injection, schedule: Q01DX005 (ip), vehicle: saline with Tween-80
  T/C: 96 % of control
dose: 15.0 mg/kg/injection, schedule: Q01DX005 (ip), vehicle: saline with Tween-80
  T/C: 96 % of control
dose: 30.0 mg/kg/injection, schedule: Q01DX005 (ip), vehicle: saline with Tween-80
  T/C: 87 % of control

## Nc1cccc2c1C(=O)c1cccc(N)c1C2=O
[19]
  T/C: 100 % of control
[7]
  T/C: 97 % of control
[20]
  T/C: 91 % of control
[8]
  T/C: 100 % of control
[21]
  T/C: 100 % of control
[4]
  T/C: 108 % of control
[11]
  T/C: 104 % of control

## COc1cc(/C=N\NC(=O)c2cccc(Cl)c2)ccc1N(CCCl)CCCl
[16]
  T/C: 163 % of control
dose: 264.0 mg/kg/injection, schedule: Q04DX003 (ip), vehicle: saline with Tween-80
  T/C: 154 % of control
dose: 400.0 mg/kg/injection, schedule: Q04DX003 (ip), vehicle: saline with Tween-80
  T/C: 172 % of control and 195 % of control
dose: 600.0 mg/kg/injection, schedule: Q04DX003 (ip), vehicle: saline with Tween-80
  T/C: 154 % of control

## CCOc1cccc(/C=C2/C(=O)N(Cc3ccco3)SC2=S)c1O
dose: 3.12 mg/kg/injection, schedule: Q01DX009 (ip), vehicle: Klucel (hydroxypropylcellulose) (HPC)
  T/C: 93 % of control
dose: 6.25 mg/kg/injection, schedule: Q01DX009 (ip), vehicle: Klucel (hydroxypropylcellulose) (HPC)
  T/C: 93 % of control
dose: 12.5 mg/kg/injection, schedule: Q01DX009 (ip), vehicle: Klucel (hydroxypropylcellulose) (HPC)
  T/C: 93 % of control and 94 % of control
dose: 25.0 mg/kg/injection, schedule: Q01DX009 (ip), vehicle: Klucel (hydroxypropylcellulose) (HPC)
  T/C: 98 % of control

## CCCCn1c2nc(=O)[nH]c(=O)c-2cc2ccccc21
dose: 25.0 mg/kg/injection, schedule: Q01DX009 (ip), vehicle: saline with Tween-80
  T/C: 98 % of control
[9]
  T/C: 94 % of control
[10]
  T/C: 91 % of control

## COc1ccc(C(CC(=O)O)c2cc3c(cc2OC)OCO3)cc1 (configuration not stated)
dose: 50.0 mg/kg/injection, schedule: Q01DX005 (ip), vehicle: distilled water + Tween-80
  T/C: 94 % of control
dose: 100.0 mg/kg/injection, schedule: Q01DX005 (ip), vehicle: distilled water + Tween-80
  T/C: 96 % of control
dose: 200.0 mg/kg/injection, schedule: Q01DX005 (ip), vehicle: distilled water + Tween-80
  T/C: 90 % of control

## O=C(CCCCC(=O)Nc1ccc2c(=O)c3ccccc3[nH]c2c1)Nc1ccc2c(=O)c3ccccc3[nH]c2c1
[19]
  T/C: 99 % of control
[20]
  T/C: 104 % of control
[21]
  T/C: 104 % of control

## CCCCCCCC(=O)Nc1cc2c3c(c1)CCC(=O)N3CCC2
[1]
  T/C: 100 % of control
[2]
  T/C: 100 % of control
[3]
  T/C: 98 % of control

## Cn1c(=NCCc2ccccc2)oc2ccc(Cl)cc21
[19]
  T/C: 103 % of control
[20]
  T/C: 100 % of control
[21]
  T/C: 100 % of control

## CCC1CCCCN1C(=S)N/N=C(\C)c1ccccn1 (configuration not stated)
dose: 12.5 mg/kg/injection, schedule: Q04DX003 (ip), vehicle: saline with Tween-80
  T/C: 106 % of control
[14]
  T/C: 108 % of control and 115 % of control
[15]
  T/C: 115 % of control

## C=CC(=NC(C)C)N(C)c1ccccc1
dose: 6.25 mg/kg/injection, schedule: Q01DX009 (ip), vehicle: saline
  T/C: 101 % of control
[17]
  T/C: 96 % of control
[18]
  T/C: 96 % of control
